Several values for one entry are separate records, joined by “and”; a condition that tells them apart may be missing. Equal values may be shown once.
Assays:
[1] = test system: RBCs; assay: C-peptide binding to RBCs (Example 1, supernatant subtraction); assay type: cell-based; conditions: RBCs of individual healthy controls; 20 picomoles human C-peptide, 75 micromolar albumin, 2 hours
Protocol: The amount of C-peptide binding to RBCs obtained from MS patients was compared to controls run on the same day. All samples were handled in an identical manner. Briefly, about 10 mL of blood were drawn from each donor; the RBCs were purified by centrifugation. Next, 20 picomoles of human C-peptide were added to a buffer containing 75 micromolar albumin. RBCs were added to this C-peptide and albumin-containing buffer and allowed to incubate for 2 hours. Next, the samples were centrifuged and the moles of C-peptide remaining in the supernatant are subtracted from the original amount added. This provided a value corresponding to the moles of C-peptide bound to the RBCs. […] Importantly, of the 25 MS patient samples analyzed, the values ranged from 2.7 to 4.8 picomoles of C-peptide bound to the RBCs, with 18 of the 25 above 3.2 picomoles. In comparison, one control was 3.1, another was 2.8; all others were below 2.45. Thus, separation exists between groups—approximately […] of bound C-peptide difference.

[2] = test system: RBCs; assay: C-peptide binding to RBCs, ELISA of supernatant (Example 2 protocol; hematocrit and storage variations); assay type: cell-based, human; conditions: for average C-peptide bound to the RBCs: 7% hematocrit, 20 nM C-peptide, 75 μM BSA (0.5%), 2 hours at 37° C.
Protocol: All samples were handled in an identical manner. Briefly, about 10 mL of blood was drawn from each donor; the RBCs were purified by centrifugation; and the RBCs were suspended in physiological salt solution (PSS). Then RBCs were combined with PSS (containing bovine serum albumin (BSA) as a C-peptide binding facilitator) and C-peptide to generate a mixture having a 7% hematocrit, 20 nM C-peptide, and 75 μM BSA (0.5%). The mixture was allowed to incubate for 2 hours at 37° C. Next, the samples were centrifuged to separate the cells from solution, the solution was diluted 1:50 with double distilled water, and the amount of C-peptide remaining in the solution was determined by ELISA. This provided a value corresponding to the moles of C-peptide bound to the RBCs. […] Whereas blood from the healthy controls bound an average of 1.99±0.32 pmoles C-peptide, blood from MS patients and OND patients bound averages of 3.51±0.59 pmoles of C-peptide and 2.23±0.51 pmoles of C-peptide, respectively. As shown by p values of less than 0.001, the increase in C-peptide binding relative to healthy controls and OND patients is significant.
Experiments were performed to determine the effect of hematocrit on C-peptide binding to RBCs. The experiment was conducted as described above in Experiment 2, except various hematocrits were tested. […] In general, increase the hematocrit results in a substantially linear increase in C-peptide binding when the RBCs are saturated with C-peptide.
Experiments were performed to determine the stability of the whole blood. The experiment was conducted as described above in Experiment 2, except the blood was stored in citrate tubes at 4° C. over a period of 4 days during the experiment. Only blood from healthy patients was tested.
(§1) Experiments were performed to determine the stability of supernatant generated after separating cells from solution as described in Experiment 2. The protocol of Experiment 2 was repeated on blood from healthy patients, but the supernatant was stored at 4° C. for from 1 to 3 days prior to determining C-peptide binding by the RBCs.
as §1, with “−20°” for “4°”, “C.” for “C. for”, “0 (day of draw)” for “1”, “6 weeks” for “3 days”

[3] = test system: bovine pulmonary artery endothelial cells; assay: C-peptide binding to endothelial cells; assay type: cell-based; conditions: 1 hour at 37° C., 10 nM Zn2+ and C-peptide in DMEM containing serum
Protocol: Additional experiments were performed to determine whether a C-peptide facilitator can facilitate binding of C-peptide to cells expressing Glut1 other than RBCs. Endothelial cells (bovine pulmonary artery endothelial cells) were grown to confluency on 12-well tissue culture plates. When the cell reached confluency, they were incubated in Dulbecco's Modified Eagle Medium (DMEM) containing serum for 24 hours. Following incubation, the cells were washed and incubated for 1 hour at 37° C. in the presence of 10 nM Zn^2+ and C-peptide in DMEM containing serum. The endothelial cells were determined to have bound 2.0±0.1 attomoles of C-peptide per endothelial cell.

[4] = test system: Neutrophils from healthy control patients; assay: C-peptide binding to neutrophils; assay type: cell-based, human; conditions: 20 nM C-peptide, 1 hour at 37° C.
Protocol: Neutrophils from healthy control patients were also tested. The neutrophils were isolated using techniques known in the art. Briefly, blood was drawn into a heparin-coated vacutainer. An equal volume of 3% Dextran was added to drawn whole blood in sterile 50 mL tubes. After inverting, the tubes were set upright for 30 minutes at room temperature to generate a plurality of layers. The top layer was aspirated and transferred to a new 50 mL tube and centrifuged at 500 g for 10 minutes at 4° C. The resulting top layer was discarded. The resulting pellet was resuspended in 10 mL 0.9% saline. After pooling suspensions together in a single tube, it was underplayed with 10 mL of hypaqu-ficoll and centrifuged at 800 g for 15 minutes at room temperature. The resulting liquid band was removed and the remainder was resuspended in 20 mL 0.2% saline and mixed. 20 mL of 1.6% saline was then added to the suspension and it was centrifuged at 250 g for 6 minutes at 4° C. The supernatant was removed and the pellet was suspended in PBS for use in experiments. The cells were counted and then incubated with 20 nM C-peptide for 1 hour at 37° C. to generate an incubated sample. The incubated sample was centrifuged and the amount of C-peptide in the supernatant was determined by ELISA. The neutrophils were determined to have bound 2.68 attomoles of C-peptide per neutrophil.

C-peptide (EAEDLQVGQVELGGGPGAGSLQPLALEGSLQ; listed as Homo sapiens) [approximately 30 amino acid polypeptide that connects the A and B chain of mature insulin within the proinsulin molecule]
C-peptide bound to the RBCs [1]: 3.1 and 2.8 and below 2.45
average C-peptide bound to the RBCs ([2]; MS patients): 3.51 ± 0.59 pmol
average C-peptide bound to the RBCs ([2]; OND patients): 2.23 ± 0.51 pmol
C-peptide binding ([2]; healthy blood stored in citrate tubes at 4° C., day 1): 2.38 pmol
C-peptide binding ([2]; healthy blood stored in citrate tubes at 4° C., day 2): 2.23 pmol
C-peptide binding ([2]; healthy blood stored in citrate tubes at 4° C., day 3): 2.14 pmol
C-peptide binding ([2]; healthy blood stored in citrate tubes at 4° C., day 4): 1.83 pmol
C-peptide binding ([2]; healthy blood, supernatant stored at 4° C., day 1): 2.23 pmol
C-peptide binding ([2]; healthy blood, supernatant stored at 4° C., day 2): 2.17 pmol
C-peptide binding ([2]; healthy blood, supernatant stored at 4° C., day 3): 2.20 pmol
C-peptide binding ([2]; healthy blood, supernatant stored at −20° C., week 0 (day of draw)): 2.45 pmol
C-peptide binding ([2]; healthy blood, supernatant stored at −20° C., week 1): 2.48 pmol
C-peptide binding ([2]; healthy blood, supernatant stored at −20° C., week 3): 2.30 pmol
C-peptide binding ([2]; healthy blood, supernatant stored at −20° C., week 6): 2.34 pmol
average C-peptide bound to the RBCs ([2]; healthy controls): 1.99 ± 0.32 pmol
C-peptide binding ([2]; healthy individuals that do not have MS): about 1500 C-peptide molecules per cell
C-peptide binding by RBCs, Control ([2]; hematocrit 3.50%): 1.18 pmol
C-peptide binding by RBCs, MS ([2]; hematocrit 3.50%): 1.63 pmol
C-peptide binding by RBCs, Control ([2]; hematocrit 7%): 2.18 pmol
C-peptide binding by RBCs, MS ([2]; hematocrit 7%): 3.38 pmol
C-peptide binding by RBCs, Control ([2]; hematocrit 14%): 4.78 pmol
C-peptide binding by RBCs, MS ([2]; hematocrit 14%): 6.25 pmol
C-peptide bound [3]: 2.0±0.1 attomoles of C-peptide per endothelial cell
C-peptide bound [4]: 2.68 attomoles of C-peptide per neutrophil
